Source: patent publication US20070219154A1, “Methods for preventing and/or treating a cell proliferative disorder” (priority 2005, published 2007)
pEC50, pIC50: −log10 of the molar value.

Tests used:
Format in all cases: cell-based, human
[1] = tested on: ovarian cancer cell line SKOV-3; assay: Intracellular Ca2+ release (FLIPR) assay, SKOV-3; settings: thrombin 0.1-100 nM, FIG. 14
Description: (§1) As detailed below, intracellular Ca^2+ release was measured in various tumor cell lines treated with thrombin. Likewise, intracellular Ca^2+ release was measured in a subset of those tumor cell lines treated with thrombin and PAR-1 inhibitor Formula 2. In brief, cells were plated into a 96-well plate at a density of 4×10^4 cells per well and allowed to attach overnight at 37° C. prior to loading with Fluo-4AM. Cells were then incubated at 37° C. for 60 minutes. After washing the cells, thrombin as well as the appropriate concentration of PAR-1 inhibitor Formula 2 was added and cells incubated at 37° C. for 30 minutes prior to taking fluorescence readings.

[2] = tested on: pancreatic cancer cell line MiaPaCa2; assay: Intracellular Ca2+ release (FLIPR) assay, MiaPaCa2; settings: thrombin 0.1-100 nM, FIG. 14
Description: as §1

[3] = tested on: prostate cancer cell line PC-3; assay: Intracellular Ca2+ release (FLIPR) assay, PC-3; settings: thrombin 0.1-100 nM, FIG. 14
Description: as §1

glioma cell line U373 [4] = assay: Intracellular Ca2+ release (FLIPR) assay, U373; settings: thrombin 0.1-100 nM, FIG. 14
Description: as §1

glioma cell line SNB19 = assay: Intracellular Ca2+ release (FLIPR) assay, SNB19; settings: thrombin 0.1-100 nM, FIG. 14
Description: as §1

glioma cell line SF295 = assay: Intracellular Ca2+ release (FLIPR) assay, SF295; settings: thrombin 0.1-100 nM, FIG. 14
Description: as §1

glioma cell line U118MG = assay: Intracellular Ca2+ release (FLIPR) assay, U118MG; settings: thrombin 0.1-100 nM, FIG. 14
Description: as §1

glioma cell line T98G = assay: Intracellular Ca2+ release (FLIPR) assay, T98G; settings: thrombin 0.1-100 nM, FIG. 14
Description: as §1

glioma cell line U373 [5] = assay: 14C-thymidine incorporation assay, U373; settings: thrombin 0.001-1000 nM, 48 hours, FIG. 16
Description: (§2) Cell growth proliferation was ascertained by measuring ^14C-thymidine incorporation in various cell lines treated with thrombin in the presence or absence of a PAR-1 inhibitor. In brief, 5×10^3 cells per well were seeded in a 96-well plate and incubated at 37° C. for 1 day. The cells were starved with serum-free medium for 1 day prior to treatment with serum-free media containing 0.5 μCi/ml ^14C-thymidine as well as PAR-1 inhibitor and/or thrombin (where applicable). The cells were then incubated at 37° C. for 48 hours prior to reading radioactivity on a beta counter (1450 Microbeta Plus, Liquid Scintillation Counter (Wallac Software, Perkin Elmer) using the program for ^14C counting on 96-well Cytostar-T scintillating microplate (Amersham Pharmacia Biotech, Piscataway, N.J.).

[6] = tested on: pancreatic cancer cell line MiaPaCa2; assay: 14C-thymidine incorporation assay, MiaPaCa2; settings: 48 hours
Description: as §2

[7] = tested on: pancreatic cell line MiaPaCa2; assay: Calcein AM assay, MiaPaCa2; settings: 3 days, FIG. 18
Description: (§3) Viability of cells was ascertained using the LIVE/DEAD Viability/Cytotoxicity calcein AM assay [Molecular Probes, technical bulletin MP03224] in the pancreatic cell line MiaPaCa2 and the pancreatic cancer cell line Panc1 following treatment with thrombin, or PAR-1 inhibitor in the presence or absence of thrombin (at a concentration of 10 nM). Calcein AM is a cell-permeant nonflouroescent molecule which is cleaved by esterases found within live cells to create the intensely fluorescent calcein. The polyanionic dye calcein is retained within live cells, producing an intense uniform green fluorescence which can be measured by a fluorescent multiwell plate reader to determine the actual number of live cells in each well. In brief, 1×10^4 cells per well were plated into a 96-well plate and allowed to attach overnight at 37° C. prior to treatment with serum-free media containing 10 nM thrombin as well as the appropriate concentration of PAR-1 inhibitor Formula 2 (5×10^−9; 1×10^−8; 5×10^−8; 1×10^−7; 5×10^−7; 1×10^−6; 5×10^−6; or 1×10^−5 M). Cells were then incubated at 37° C. for 3 days prior to adding Calcein AM reagent and reading fluorescence.

[8] = tested on: pancreatic cancer cell line Panc1; assay: Calcein AM assay, Panc1; settings: 3 days, FIG. 18
Description: as §3

[9] = tested on: pancreatic cancer cell line MiaPaCa2; assay: Soft agar assay, MiaPaCa2
Description: (§4) Cell proliferation was ascertained by soft agar assay. In brief, cells were grown within a matrix of 1.2% soft agar that contained PAR-1 inhibitor at the appropriate concentration. Plates containing cells in the soft agar were incubated at 37° C. for approximately 2 weeks until cell colonies were visible. Cells were then stained by adding 1 mg/ml MTT in PBS and incubating at 37° C. for 1-2 hours. After which the staining solution was removed and plates incubated at 4° C. for 1-2 hours to resolidify agar before scanning.

[10] = tested on: glioma cancer cell line SF295; assay: Soft agar assay, SF295
Description: as §4

Molecule | intracellular Ca2+ release stimulated by thrombin [1] | intracellular Ca2+ release stimulated by thrombin [2] | intracellular Ca2+ release stimulated by thrombin [3] | intracellular Ca2+ release stimulated by thrombin (glioma cell line U373 [4]) | intracellular Ca2+ release stimulated by thrombin (glioma cell line SNB19) | intracellular Ca2+ release stimulated by thrombin (glioma cell line SF295) | intracellular Ca2+ release stimulated by thrombin (glioma cell line U118MG) | intracellular Ca2+ release stimulated by thrombin (glioma cell line T98G) | thrombin-induced cell proliferation (14C-thymidine incorporation) (glioma cell line U373 [5]) | pEC50 ([6]; read-out: EC50 of thrombin, cell proliferation (14C-thymidine incorporation)) | thrombin-induced cell proliferation (14C-thymidine incorporation) ([6]; thrombin 10^-4 to 10^2 nM, FIG. 17) | thrombin-induced cell proliferation (calcein AM) [7] | thrombin-induced cell proliferation (calcein AM) [8] | inhibition of cell proliferation (soft agar assay) ([9]; 0-10,000 nM, dose-dependent manner) | pIC50 ([9]; Homo sapiens, MIA PaCa-2, 336 h, approximately 2 weeks, FIG. 20, read-out: IC50, cell proliferation (soft agar assay)) | anti-proliferative effects ([9]; at higher doses) | inhibition of cell proliferation (soft agar assay) ([10]; 0-30,000 nM, dose-dependent manner) | pIC50 ([10]; Homo sapiens, SF-295, 336 h, approximately 2 weeks, FIG. 21, read-out: IC50, cell proliferation (soft agar assay)) | anti-proliferative effects ([10]; at higher doses)
thrombin | stimulates | stimulates | stimulates | stimulates | stimulates | stimulates | stimulates | stimulates | dose-dependent | 10.85 | dose-dependent | dose-dependent | minimal | – | – | – | – | – | –
CCOC(=O)N[C@@H]1CC[C@@H]2[C@@H](C1)C[C@H]1C(=O)O[C@H](C)[C@H]1[C@H]2/C=C/c1ccc(-c2ccccc2C#N)cn1 [Formula 3] | – | – | – | – | – | – | – | – | – | – | – | – | – | inhibited | 5.28 | modest | inhibited | 5.21 | modest
